By EC50 is commonly meant the concentration needed to bring the measured effect to its halfway point.

The structures appear in SMILES notation.

The subject of data set [1] is HEK293, A549, HCT116 and SKOV-3. In words: CellTiter-Glo metabolic activity, cell line panel. The class given is cell-based. As to conditions: 48 h. The protocol: (§1) 4.4 Cell viability assay on 2D cells cultures
(§2) HEK293, HCT116, A549,andSKOV-3 cells were seeded in 96-well tissue culture plates at a density of 2000-3000 cells per well in 100 µl of growth medium and incubated overnight at 37 °C with 5% CO2. The following day, the cells were treated with various concentrations of compounds or 0.05% DMSO for 48 h. After treatment, add 100 μl of Cell Titer-Glo® 2.0 Reagent (cat. no. G9243, Promega) in each well, then the 96-well plates were put on an orbital shaker for 10 min and then allow the plate to incubate at room temperature for 10-20min to stabilize the luminescent signal. Luminescence readout (Gen5 Data Analysis Software v3.08.01) was performed to record luminescence.
(§3) (1 picture or pasted object on this page, not shown here)
A general note: Cellular ATP, detected with luciferase, serves as a proxy for viable cell number.

Data set [2] in a line: Body weight change in A549 xenograft mice. The class given is in vivo, mouse. The conditions noted are these: i.p. On the procedure: 4.7 Therapeutic anti-tumor evaluation
Animal experiments were carried out in accordance with the regulatory guidelines of the Ethics Committee of the Ghent University Hospital. 30 female Swiss Nude Immunodeficient mice (Crl:NU(Ico)-Foxn1nu) of 5 weeks-6 weeks old (Charles River) were subcutaneously injected with […] A549 (1:1 serum free DMEM medium: Matrigel (Corning)). 10 days post inoculation ,mice were randomized into five groups (6 mice/group) with equal average tumor volume and treatment was started: (1) the control group: Vehicle(20% PEG400 and 5% […]
2J2V group (0.1 mg/kg), (5) the 2J2V group(0.5 mg/kg).Mice were treated on Day 0, Day 2, Day 4, Day 11, Day 18 by intraperitoneal injection. Tumor growth was monitored every 3 days by caliper, and the tumor volume was calculated as 1/2 × length × width2. Body weight was monitored every 3 days by weighing scale. […]
The reduced […]
proteins were alkylated with 40 mM iodoacetamide (IAA) in the dark for 30 minutes. Then samples were acidified with 1.2% aqueous phosphoric acid and mixed with 6× volumes of 90% methanol, 100 mM TEAB, pH 7.1 (S-Trap binding buffer). The samples were loaded onto the (1 picture or pasted object on this page, not shown here)

Data set [3] addresses T1, VHL (Homo sapiens, UniProt P40337).
T1 construct: western blot analysis of the levels of CRBN and VHL E3 ligase in cell lysate; endogenous in cells; host or cells: HEK293 (ATCC)
In words: E3 ligase homo-degradation by western blot, VHL. The conditions noted are these: HEK293 cells, 4 h, 1 μM and 10 μM. The class given is cell-based. The text has this: 4. Biological experiments
Primary antibodies used for western blotting included anti-human BRD2(1:2000, rabbit monoclonal, Abcam, ab139690), anti-human BRD3 (1:1000, rabbit monoclonal, Abcam, ab264420), anti-human BRD4 (E2A7X) (1:1000, rabbit monoclonal, Cell Signaling Technology, #13440), anti-human VHL (1:1000, rabbit polyclonal, Cell Signaling Technology, #68547), anti-human CRBN (D8H3S) (1:1000, rabbit polyclonal, Cell Signaling Technology, #71810), anti-human alpha Tubulin, clone B-5-1-2 (1:5000, mouse monoclonal, Merck Life Science, # 32-2500).Secondary antibodies used for western blot included: anti-mouse horseradish peroxidase-linked antibody (1:3000, sheep, GE Healthcare Life Sciences, #NA931V), and anti-rabbit horseradish peroxidase-linked antibody (1:8000, donkey, GE Healthcare Life Sciences, #NA934V). Reagent for degradation assay and compounds […]
dr. Serge Van Calenbergh, Ghent University). […]
General method of Western blot: Lysates were sonicated and centrifuged at 4 °C at 20000 g for 15 min, and the supernatants were transferred to new tubes. Protein concentration of cell lysates was measured using the DC Protein Assay kit (BIO-RAD) following manufacturer's instructions. […]
Figure S5 Homo-degradation effect in Dual-ligand PROTACs. […] Subsequently, cell lysates were prepared and the protein levels of CRBN or VHL E3 ligase were assessed by Western blotting. […]
(In general: Immunoblotting shows a protein as a band on a membrane.)

Data set [4] deals with HCT116 cells. The experiment in a line: CellTiter-Glo 2D metabolic activity assay, HCT116. The class given is cell-based. As to conditions: Homo sapiens, HCT-116, 2D culture, 48 h. The protocol:
as §1, §2, §3

T1 sequence (P40337 whole entry): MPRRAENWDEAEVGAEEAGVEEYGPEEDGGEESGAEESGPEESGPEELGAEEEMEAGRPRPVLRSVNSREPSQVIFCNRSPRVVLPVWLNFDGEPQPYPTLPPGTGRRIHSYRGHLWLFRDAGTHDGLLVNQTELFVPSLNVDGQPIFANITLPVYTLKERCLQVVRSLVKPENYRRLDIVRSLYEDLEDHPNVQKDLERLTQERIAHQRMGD

Turning to `Cc1ncsc1-c1ccc(C(C)NC(=O)C2CC(O)CN2C(=O)C(NC(=O)COCCOCCNC(=O)CC(NC(=O)CCc2cn(CCOCCOCCOCCOCC(=O)NC(CC(=O)NCCOCCOCCNC(=O)CC3N=C(c4ccc(Cl)cc4)c4c(sc(C)c4C)-n4c(C)nnc43)C(=O)NCCOCCOCCNC(=O)CC3N=C(c4ccc(Cl)cc4)c4c(sc(C)c4C)-n4c(C)nnc43)nn2)C(=O)NCCOCCOCC(=O)NC(C(=O)N2CC(O)CC2C(=O)NC(C)c2ccc(-c3scnc3C)cc2)C(C)(C)C)C(C)(C)C)cc1` (centres unmarked) [2J2V], the “metabolic inhibition, comparison” value in data set [1] is given as “greater metabolic response compared to the CRBN ligase-based dual-ligand PROTACs 2J2P”. Moreover, the body weight change entry is reported as “no detectable decrease in body weight” in data set [2] (0.1 mg kg−1) and “slight body weight decrease” in data set [2] (0.5 mg kg−1). In data set [3], the VHL homo-degradation entry is “did induce homo-degradation of VHL”.

Take `Cc1ncsc1-c1ccc(CNC(=O)C2CC(O)CN2C(=O)C(NC(=O)COCCOCCOCCNC(=O)CC2N=C(c3ccc(Cl)cc3)c3c(sc(C)c3C)-n3c(C)nnc32)C(C)(C)C)cc1` (centres unmarked) [MZ1, reference compound]: the EC50 in data set [4] amounted to 100 nM.

For the origin of these results see publication PMC11462456 (Chemical Science, 2024).
